In patent US20040116464A1, “Aryl-ethanolamine derivatives as antiviral agents” (priority 2002, published 2004):
Read-outs that look alike come from different tables or passages of the source.

Key:
HSV polymerase = HSV polymerase (Human herpesvirus 1, UniProt P04293); assay: HSV polymerase assay (Table 1); format: biochemical
HCMV polymerase = molecular target: T1, HCMV polymerase (Human cytomegalovirus, UniProt P08546); assay: HCMV polymerase scintillation proximity assay; format: biochemical
T1 construct: made in house; host or cells: recombinant baculovirus-infected SF-9 cells
Procedure: The HCMV polymerase assay is performed using a scintillation proximity assay (SPA) as described in several references, such as N. D. Cook, et al., Pharmaceutical Manufacturing International, pages 49-53 (1992); K Takeuchi, Laboratory Practice, September issue (1992); U.S. Pat. No. 4,568,649 (1986); which are incorporated by reference herein. Reactions are performed in 96-well plates. The assay is conducted in 100 μl volume with 5.4 mM HEPES (pH 7.5), 11.7 mM KCl, 4.5 mM MgCl2, 0.36 mg/ml BSA, and 90 nM ^3H-dTTP. Assays are run with and without CHAPS, (3-[(3-Cholamidopropyl)-dimethylammonio]-1-propane-sulfonate) at a final concentration of 2 mM. HCMV polymerase is diluted in enzyme dilution buffer containing 50% glycerol, 250 mM NaCl, 10 mM HEPES (pH 7.5), 100 μg/ml BSA, and 0.01% sodium azide. The HCMV polymerase, which is expressed in recombinant baculovirus-infected SF-9 cells and purified according to literature procedures, is added at 10% (or 10 μl) of the final reaction volume, i.e., 100 μl. Compounds are diluted in 50% DMSO and 10 μl are added to each well. Control wells contain an equivalent concentration of DMSO. Unless noted otherwise, reactions are initiated via the addition of 6 nM biotinylated poly(dA)-oligo(dT) template/primer to reaction mixtures containing the enzyme, substrate, and compounds of interest. Plates are incubated in a 25° C. or 37° C. H2O bath and terminated via the addition of 40 μl/reaction of 0.5 M EDTA (pH 8) per well. Reactions are terminated within the time-frame during which substrate incorporation is linear and varied depending upon the enzyme and conditions used, i.e., 30 min. for HCMV polymerase. Ten (10) μl of streptavidin-SPA beads (20 mg/ml in PBS/10% glycerol) are added following termination of the reaction. Plates are incubated 10 min. at 37° C., then equilibrated to room temperature, and counted on a Packard Topcount. Linear regressions are performed and IC50's are calculated using computer software.
A modified version of the above HCMV polymerase assay is performed as described above, but with the following changes: Compounds are diluted in 100% DMSO until final dilution into assay buffer. In the previous assay, compounds are diluted in 50% DMSO. 4.5 mM Dithiothreitol (DTT) is added to the polymerase buffer.
All results are listed as Polymerase IC50 (μM) values. In Table 1, the term “n.d.” refers to activity data not determined.

VZV polymerase = VZV polymerase (Varicella-zoster virus, UniProt P09252); assay: VZV polymerase assay (Table 1); format: biochemical
Chain of VZV polymerase (P09252 whole entry): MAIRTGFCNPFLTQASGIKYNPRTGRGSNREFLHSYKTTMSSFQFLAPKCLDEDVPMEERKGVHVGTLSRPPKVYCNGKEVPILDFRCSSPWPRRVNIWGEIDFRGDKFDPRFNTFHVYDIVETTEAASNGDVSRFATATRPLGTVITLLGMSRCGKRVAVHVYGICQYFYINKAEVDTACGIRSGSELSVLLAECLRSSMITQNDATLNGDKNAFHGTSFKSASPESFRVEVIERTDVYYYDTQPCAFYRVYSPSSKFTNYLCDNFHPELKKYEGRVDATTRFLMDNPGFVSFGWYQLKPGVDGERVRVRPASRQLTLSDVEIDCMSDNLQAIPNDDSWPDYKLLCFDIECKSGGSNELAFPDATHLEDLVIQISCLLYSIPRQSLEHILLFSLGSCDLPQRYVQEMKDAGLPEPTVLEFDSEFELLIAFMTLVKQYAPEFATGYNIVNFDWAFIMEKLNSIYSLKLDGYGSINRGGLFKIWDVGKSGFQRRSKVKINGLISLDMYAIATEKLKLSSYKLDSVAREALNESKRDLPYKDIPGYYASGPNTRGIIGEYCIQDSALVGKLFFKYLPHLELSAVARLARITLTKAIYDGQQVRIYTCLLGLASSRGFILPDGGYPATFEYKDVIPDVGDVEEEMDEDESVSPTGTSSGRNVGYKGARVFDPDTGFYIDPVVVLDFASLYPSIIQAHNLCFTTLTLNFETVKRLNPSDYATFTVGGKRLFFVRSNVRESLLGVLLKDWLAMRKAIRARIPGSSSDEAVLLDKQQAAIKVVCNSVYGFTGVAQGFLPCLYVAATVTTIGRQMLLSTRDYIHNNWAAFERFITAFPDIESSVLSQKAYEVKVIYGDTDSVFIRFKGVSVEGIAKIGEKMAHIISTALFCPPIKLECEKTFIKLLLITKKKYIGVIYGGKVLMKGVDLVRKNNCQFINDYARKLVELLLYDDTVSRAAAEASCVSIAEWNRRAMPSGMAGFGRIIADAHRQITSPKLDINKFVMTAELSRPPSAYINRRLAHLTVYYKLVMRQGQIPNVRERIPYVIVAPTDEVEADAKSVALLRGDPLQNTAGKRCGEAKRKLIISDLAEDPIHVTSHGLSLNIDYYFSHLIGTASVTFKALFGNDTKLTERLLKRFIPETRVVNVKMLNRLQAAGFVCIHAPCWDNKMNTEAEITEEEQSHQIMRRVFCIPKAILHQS

T1 sequence (P08546 whole entry): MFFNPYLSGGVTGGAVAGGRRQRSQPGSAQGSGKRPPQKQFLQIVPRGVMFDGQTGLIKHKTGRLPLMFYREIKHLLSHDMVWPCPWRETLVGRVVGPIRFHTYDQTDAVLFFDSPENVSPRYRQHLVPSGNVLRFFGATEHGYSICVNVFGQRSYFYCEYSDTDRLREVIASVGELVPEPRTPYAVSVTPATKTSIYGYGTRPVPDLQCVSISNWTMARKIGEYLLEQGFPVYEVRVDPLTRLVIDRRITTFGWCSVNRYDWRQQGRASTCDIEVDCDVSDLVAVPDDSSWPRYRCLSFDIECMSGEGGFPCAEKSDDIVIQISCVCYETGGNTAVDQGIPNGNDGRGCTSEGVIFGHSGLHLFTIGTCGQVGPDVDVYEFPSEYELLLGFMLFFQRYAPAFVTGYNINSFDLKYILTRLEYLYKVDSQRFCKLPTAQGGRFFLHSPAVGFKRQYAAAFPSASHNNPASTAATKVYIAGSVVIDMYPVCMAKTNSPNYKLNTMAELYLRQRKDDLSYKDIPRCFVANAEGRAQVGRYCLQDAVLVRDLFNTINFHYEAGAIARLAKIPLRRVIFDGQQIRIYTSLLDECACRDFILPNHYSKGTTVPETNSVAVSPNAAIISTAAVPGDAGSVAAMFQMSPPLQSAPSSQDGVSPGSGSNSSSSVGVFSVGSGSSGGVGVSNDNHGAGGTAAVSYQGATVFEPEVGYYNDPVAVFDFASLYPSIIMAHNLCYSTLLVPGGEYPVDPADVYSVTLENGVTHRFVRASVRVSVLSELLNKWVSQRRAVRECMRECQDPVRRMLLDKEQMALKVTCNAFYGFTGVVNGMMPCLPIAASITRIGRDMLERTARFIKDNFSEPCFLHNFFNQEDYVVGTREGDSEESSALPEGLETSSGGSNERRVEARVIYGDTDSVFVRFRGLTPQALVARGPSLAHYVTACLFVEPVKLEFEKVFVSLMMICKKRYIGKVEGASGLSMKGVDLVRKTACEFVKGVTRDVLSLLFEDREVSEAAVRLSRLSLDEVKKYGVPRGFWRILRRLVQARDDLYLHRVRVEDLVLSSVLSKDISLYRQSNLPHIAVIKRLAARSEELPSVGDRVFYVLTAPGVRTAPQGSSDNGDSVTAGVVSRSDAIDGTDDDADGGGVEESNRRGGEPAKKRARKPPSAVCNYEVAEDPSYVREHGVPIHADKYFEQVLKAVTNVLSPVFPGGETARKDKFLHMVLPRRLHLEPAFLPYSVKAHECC
Chain of HSV polymerase (P04293 whole entry): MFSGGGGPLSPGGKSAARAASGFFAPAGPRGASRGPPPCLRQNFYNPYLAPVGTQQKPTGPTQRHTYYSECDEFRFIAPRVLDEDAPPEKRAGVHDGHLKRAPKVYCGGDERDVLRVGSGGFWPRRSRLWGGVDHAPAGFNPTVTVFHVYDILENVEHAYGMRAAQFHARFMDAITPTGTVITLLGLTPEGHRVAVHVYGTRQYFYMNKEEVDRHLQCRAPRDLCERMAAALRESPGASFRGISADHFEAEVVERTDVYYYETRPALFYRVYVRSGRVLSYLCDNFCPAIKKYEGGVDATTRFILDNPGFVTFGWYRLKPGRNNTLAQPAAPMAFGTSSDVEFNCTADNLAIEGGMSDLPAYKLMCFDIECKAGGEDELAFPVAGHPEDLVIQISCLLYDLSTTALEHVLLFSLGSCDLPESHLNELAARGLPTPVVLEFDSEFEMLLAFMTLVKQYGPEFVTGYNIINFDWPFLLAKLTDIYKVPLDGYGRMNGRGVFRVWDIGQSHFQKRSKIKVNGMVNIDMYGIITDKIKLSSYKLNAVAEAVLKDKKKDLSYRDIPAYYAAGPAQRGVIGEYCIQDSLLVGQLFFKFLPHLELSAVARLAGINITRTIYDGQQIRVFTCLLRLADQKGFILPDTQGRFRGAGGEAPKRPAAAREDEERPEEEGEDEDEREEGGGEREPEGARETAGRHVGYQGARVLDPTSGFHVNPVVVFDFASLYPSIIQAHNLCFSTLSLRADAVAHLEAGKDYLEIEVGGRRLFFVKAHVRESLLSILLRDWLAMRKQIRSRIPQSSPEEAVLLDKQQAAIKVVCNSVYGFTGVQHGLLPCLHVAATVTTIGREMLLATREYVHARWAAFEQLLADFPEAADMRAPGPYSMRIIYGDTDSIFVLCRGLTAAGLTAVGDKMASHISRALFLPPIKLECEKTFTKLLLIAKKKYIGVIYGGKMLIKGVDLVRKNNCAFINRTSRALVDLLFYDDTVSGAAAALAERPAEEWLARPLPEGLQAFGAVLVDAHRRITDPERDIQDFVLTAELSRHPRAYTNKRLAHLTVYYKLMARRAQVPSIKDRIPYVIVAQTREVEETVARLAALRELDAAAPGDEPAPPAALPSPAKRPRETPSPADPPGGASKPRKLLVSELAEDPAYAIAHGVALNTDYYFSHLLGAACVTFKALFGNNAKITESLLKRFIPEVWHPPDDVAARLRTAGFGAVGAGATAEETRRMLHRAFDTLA

With `CN(Cc1cc2c(=O)c(C(=O)NCc3ccc(Cl)cc3)cn(C)c2s1)C[C@@H](O)c1ccc([N+](=O)[O-])cc1` (single isomer, unassigned) [Example 14] as the compound, how does the IC50 (HSV polymerase) read?
The IC50 was 1720 nM.

And the melting point?
Its melting point is 181 to 183 °C.

What about the IC50 (HCMV polymerase; read-out: Polymerase IC50 HCMV) of the same compound?
The IC50 was 620 nM.

Which melting point does the source give for `COCCn1cc(C(=O)NCc2ccc(Cl)cc2)c(=O)c2cc(CN(C)C[C@@H](O)c3ccccc3)sc21` [Example 9, N-(4-Chlorobenzyl)-2-((((2S)-2-hydroxy-2-phenylethyl)(methyl)amino)methyl)-7-(2-methoxyethyl)-4-oxo-4,7-dihydrothieno[2,3-b]pyridine-5-carboxamide] here?
Its melting point is 105 to 106 °C.

And the IC50 (HCMV polymerase; read-out: Polymerase IC50 HCMV)?
Its IC50 is 320 nM.

For `CN(Cc1cc2c(=O)c(C(=O)NCc3ccc(Cl)cc3)cn(CC(O)CO)c2s1)C[C@@H](O)c1ccccc1` (stereo partly drawn) [Example 3, N-(4-Chlorobenzyl)-7-(2,3-dihydroxypropyl)-2-((((2S)-2-hydroxy-2-phenylethyl)-(methyl)amino)methyl)-4-oxo-4,7-dihydrothieno[2,3-b]pyridine-5-carboxamide], which IC50 (HCMV polymerase; read-out: Polymerase IC50 HCMV) is on record?
The IC50 was 1770 nM.

What does the source list for `CCCn1cc(C(=O)NCc2ccc(Cl)cc2)c(=O)c2cc(CN(C)C[C@@H](O)c3ccccc3)sc21` [Example 8, N-(4-Chlorobenzyl)-2-((((2S)-2-hydroxy-2-phenylethyl)(methyl)amino)methyl)-4-oxo-7-propyl-4,7-dihydrothieno[2,3-b]pyridine-5-carboxamide]?
melting point: 45 to 48 °C; IC50 (HCMV polymerase; read-out: Polymerase IC50 HCMV): 620 nM

With `CN(Cc1cc2c(=O)c(C(=O)NCc3ccc(Cl)cc3)cn(C)c2s1)C[C@@H](O)c1cccc(C#N)c1` (single isomer, unassigned) [Example 11] as the compound, how does the IC50 (VZV polymerase) read?
Its IC50 is 110 nM.

What about the IC50 (HSV polymerase) of the same compound?
Its IC50 is 210 nM.

What about the IC50 (HCMV polymerase; read-out: Polymerase IC50 HCMV) of the same compound?
Its IC50 is 100 nM.

Which results are given for `CN(Cc1cc2c(=O)c(C(=O)NCc3ccc(Cl)cc3)cn(C)c2s1)C[C@@H](O)c1ccc(CO)cc1` (single isomer, unassigned) [Example 13]?
IC50 (VZV polymerase): 200 nM; IC50 (HSV polymerase): 580 nM; IC50 (HCMV polymerase; read-out: Polymerase IC50 HCMV): 130 nM

Which results are given for `COc1cccc([C@H](O)CN(C)Cc2cc3c(=O)c(C(=O)NCc4ccc(Cl)cc4)cn(C)c3s2)c1` (single isomer, unassigned) [Example 6]?
IC50 (VZV polymerase): 90 nM; IC50 (HSV polymerase): 160 nM; IC50 (HCMV polymerase; read-out: Polymerase IC50 HCMV): 60 nM

With `CN(Cc1cc2c(=O)c(C(=O)NCc3ccc(Cl)cc3)cn(C)c2s1)C[C@@H](O)c1ccc(N(C)C)cc1` (single isomer, unassigned) [Example 12] as the compound, how does the IC50 (VZV polymerase) read?
Its IC50 is 230 nM.

And the IC50 (HSV polymerase)?
The IC50 was 620 nM.

And the IC50 (HCMV polymerase; read-out: Polymerase IC50 HCMV)?
The IC50 was 210 nM.

With `CN(Cc1cc2c(=O)c(C(=O)NCc3ccc(Cl)cc3)cn(C)c2s1)C[C@@H](O)c1ccccc1` [Example 2, N-(4-Chlorobenzyl)-2-((((2S)-2-hydroxy-2-phenylethyl)(methyl)amino)methyl)-7-methyl-4-oxo-4,7-dihydrothieno[2,3-b]pyridine-5-carboxamide] as the compound, how does the IC50 (VZV polymerase) read?
The IC50 was 200 nM.

What about the IC50 (HSV polymerase) of the same compound?
The IC50 was 400 nM.

And the melting point?
Its melting point is 162 to 164 °C.

What does the source list for `CN(Cc1cc2c(=O)c(C(=O)NCc3ccc(Cl)cc3)cn(C)c2s1)C[C@@H](O)c1ccc(O)cc1` [Example 1, N-(4-Chlorobenzyl)-2-((((2S)-2-hydroxy-2-(4-hydroxyphenyl)ethyl)(methyl)-amino)methyl)-7-methyl-4-oxo-4,7-dihydrothieno[2,3-b]pyridine-5-carboxamide]?
IC50 (VZV polymerase): 80 nM; IC50 (HSV polymerase): 200 nM; IC50 (HCMV polymerase; read-out: Polymerase IC50 HCMV): 50 nM

For `CN(Cc1cc2c(=O)c(C(=O)NCc3ccc(Cl)cc3)cn(CCO)c2s1)C[C@@H](O)c1ccccc1` [Example 5, N-(4-Chlorobenzyl)-7-(2-hydroxyethyl)-2-((((2S)-2-hydroxy-2-phenylethyl)-(methyl)amino)methyl)-4-oxo-4,7-dihydrothieno[2,3-b]pyridine-5-carboxamide], which IC50 (HCMV polymerase; read-out: Polymerase IC50 HCMV) is on record?
Its IC50 is 2020 nM.

Which melting point does the source give for `CCn1cc(C(=O)NCc2ccc(Cl)cc2)c(=O)c2cc(CN(C)C[C@@H](O)c3ccccc3)sc21` [Example 7, N-(4-Chlorobenzyl)-7-ethyl-2-((((2S)-2-hydroxy-2-phenylethyl)(methyl)amino)methyl)-4-oxo-4,7-dihydrothieno[2,3-b]pyridine-5-carboxamide] here?
The melting point was 100 to 102 °C.

And the IC50 (HCMV polymerase; read-out: Polymerase IC50 HCMV)?
Its IC50 is 470 nM.

With `CN(Cc1cc2c(=O)c(C(=O)NCc3ccc(Cl)cc3)cn(C)c2s1)C[C@@H](O)c1ccc(C#N)cc1` (single isomer, unassigned) [Example 10] as the compound, how does the IC50 (HCMV polymerase; read-out: Polymerase IC50 HCMV) read?
Its IC50 is 340 nM.

With `CN(Cc1cc2c(=O)c(C(=O)NCc3ccc(Cl)cc3)cn(CCCO)c2s1)C[C@@H](O)c1ccccc1` [Example 4, N-(4-chlorobenzyl)-2-((((2S)-2-hydroxy-2-phenylethyl)(methyl)amino)methyl)-7-(3-hydroxypropyl)-4-oxo-4,7-dihydrothieno[2,3-b]pyridine-5-carboxamide] as the compound, how does the IC50 (HCMV polymerase) read?
Its IC50 is 1400 nM.
